This note sets out measurements from ChEMBL document CHEMBL4680243, “N-benzyl 4,4-disubstituted piperidines as a potent class of influenza H1N1 virus inhibitors showing a novel mechanism of hemagglutinin fusion peptide interaction” (Eur J Med Chem, 2020).

Common to all, as to assay type: cell-based, Influenza A virus (A/Puerto Rico/8/1934(H1N1))
Test [1] is described as follows: Inhibition of Influenza A virus (A/PR 8/34 (H1N1)) hemagglutinin HA1 chain S326V mutant transfected in human HeLa cells assessed as reduction in low pH-indued polykaryon formation preincubated for 15 mins followed by pH 5.2 buffer addition and measured after 5 mins by giemsa staining based microscopic analysis.
Test [2] in a line: Inhibition of Influenza A virus (A/PR 8/34 (H1N1)) hemagglutinin HA2 chain L99F mutant transfected in human HeLa cells assessed as reduction in low pH-indued polykaryon formation preincubated for 15 mins followed by pH 5.2 buffer addition and measured after 5 mins by giemsa staining based microscopic analysis.
Test [3] is described as follows: Inhibition of Influenza A virus (A/PR 8/34 (H1N1)) hemagglutinin HA1 chain 1324T mutant transfected in human HeLa cells assessed as reduction in low pH-indued polykaryon formation preincubated for 15 mins followed by pH 5.2 buffer addition and measured after 5 mins by giemsa staining based microscopic analysis.

For the compound `COC(=O)C[C@H](NC(=O)OC(C)(C)C)C(=O)N(Cc1ccc(F)cc1)C1(C(=O)NCc2ccccc2)CCN(Cc2ccccc2)CC1`, the IC50 (as a rule, the concentration needed to halve the response being measured) in test [1] was more than 100 µM; in test [2], more than 100 µM; in test [3] it was 3.2 µM.
